Legend:
[1] = Relative chemical stability of polymorph I over 4 weeks under storage (HPLC purity); assay type: physicochemical; details: for HPLC purity: week 0; for HPLC purity at 336 h / HPLC purity at 672 h: solid storage; for HPLC purity at 336 h: week 2; for HPLC purity at 672 h: week 4
[2] = Hygroscopicity: water sorption/desorption in an automated water sorption analyser, 25 ℃; assay type: physicochemical
[3] = test system: human neutrophils [인간 호중구]; details: through human endothelial cells and epithelial cells, e.g. human intestinal epithelial cell line T84; literature; cited from earlier work

With `O=C(O)COC[C@H](O)[C@H](O)/C=C/C=C/C#C/C=C/[C@H](O)COc1ccc(F)cc1` [다형체 I, 2-((2S,3R,4E,6E,10E,12S)-13-(4-플루오로페녹시)-2,3,12-트리히드록시트리데카-4,6,10-트리엔-8-이닐옥시)아세트산] the HPLC purity ([1]; 25 ℃, dry) was 97.36%, the HPLC purity ([1]; 25 ℃/60%RH) was 97.36% and the HPLC purity ([1]; 40 ℃, dry) was 97.36%. It also gave an HPLC purity ([1]; 40 ℃/75%RH) of 97.36%, an HPLC purity at 336 h ([1]; 25 ℃, dry) of 97.5% and an HPLC purity at 672 h ([1]; 25 ℃, dry) of 97.5%. It also gave an HPLC purity at 336 h ([1]; 25 ℃/60%RH) of 97.5%, an HPLC purity at 672 h ([1]; 25 ℃/60%RH) of 97.7% and an HPLC purity at 336 h ([1]; 40 ℃, dry) of 96.9%. The HPLC purity at 672 h ([1]; 40 ℃, dry) was 96.4%, the HPLC purity at 336 h ([1]; 40 ℃/75%RH) was 95.9% and the HPLC purity at 672 h ([1]; 40 ℃/75%RH) was 92.5%. The moisture adsorbed ([2]; 80% relative humidity, corresponds to the dihydrate of the substance) was roughly 8%, the hygroscopicity ([2]; in words) was “흡습성” and the reversibility of hydration ([2]; in words) was “가역적”. For the same molecule, the “relative humidity at which polymorph I transforms into the hydrate” value ([2]; relative humidity) was greater than 60%.
In the case of `O=C(O)COC[C@H](O)[C@H](O)/C=C/C=C/C#C/C=C/[C@H](O)COc1ccc(F)cc1` [수화물, 2-((2S,3R,4E,6E,10E,12S)-13-(4-플루오로페녹시)-2,3,12-트리히드록시트리데카-4,6,10-트리엔-8-이닐옥시)아세트산], the “relative humidity at which transformation into polymorph I is observed” value ([2]; relative humidity, reversal of hydration) is reported as less than 40%.
For `CCCCC[C@H](O)/C=C/C=C\C=C\C=C\[C@@H](O)[C@@H](O)CCCC(=O)O` [리폭신 A4], the “inhibition of transmigration of human neutrophils” value [3] is given as “억제한다”.

From patent publication KR20110010755A, “결정질 2-((2s,3r,4e,6e,10e,12s)-13-(4-플루오로페녹시)-2,3,12-(트리히드록시트리데카-4,6,10-트리엔-8-이닐)옥시)아세트산의 무수물 및 수화물 형태” (바이엘 쉐링 파마 악티엔게젤샤프트, priority 2008, dated 2009)
